Laboratory results as given in ChEMBL document CHEMBL4007425, “Drug Repurposing of Histone Deacetylase Inhibitors That Alleviate Neutrophilic Inflammation in Acute Lung Injury and Idiopathic Pulmonary Fibrosis via Inhibiting Leukotriene A4 Hydrolase and Blocking LTB4 Biosynthesis” (J Med Chem, 2017).
Activity calls are given as the source filed them. The rule behind the calls is not given here.

Columns and labels:
[1] = target: T1, Polyunsaturated fatty acid lipoxygenase ALOX15 (Homo sapiens) (UniProt P16050); assay: Inhibition of recombinant human N-terminal His-tagged 15-LOX-1 expressed in Escherichia coli using arachidonic acid as substrate measured every 2 min intervals for 20 mins by fluorescence analysis
T1 sequence (whole entry): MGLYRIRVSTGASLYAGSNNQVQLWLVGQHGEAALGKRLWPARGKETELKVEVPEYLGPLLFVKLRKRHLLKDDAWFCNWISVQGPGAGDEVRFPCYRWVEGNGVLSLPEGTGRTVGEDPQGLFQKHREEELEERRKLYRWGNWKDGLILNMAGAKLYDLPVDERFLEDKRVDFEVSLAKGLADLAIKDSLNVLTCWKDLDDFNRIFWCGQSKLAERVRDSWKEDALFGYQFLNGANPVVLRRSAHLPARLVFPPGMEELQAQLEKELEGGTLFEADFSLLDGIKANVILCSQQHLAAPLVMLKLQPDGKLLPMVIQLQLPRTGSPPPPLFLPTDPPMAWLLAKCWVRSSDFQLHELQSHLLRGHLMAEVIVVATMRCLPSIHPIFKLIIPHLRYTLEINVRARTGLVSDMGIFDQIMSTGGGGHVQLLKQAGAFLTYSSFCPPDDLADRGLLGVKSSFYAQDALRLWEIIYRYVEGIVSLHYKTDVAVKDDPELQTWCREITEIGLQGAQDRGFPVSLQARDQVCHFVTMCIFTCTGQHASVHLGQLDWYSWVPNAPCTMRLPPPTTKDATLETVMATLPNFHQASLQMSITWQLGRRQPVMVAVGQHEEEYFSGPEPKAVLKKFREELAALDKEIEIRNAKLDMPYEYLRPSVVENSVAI

[2] = target: T2, Leukotriene A-4 hydrolase (Homo sapiens, UniProt P09960); assay: Inhibition of recombinant human LTA4H Epoxide Hydrolase expressed in Escherichia coli BL21 (DE3) pLysS preincubated for 10 mins followed by addition of LTA4 as substrate measured after 15 mins by reverse-phase HPLC analysis
T2 sequence (P09960 whole entry): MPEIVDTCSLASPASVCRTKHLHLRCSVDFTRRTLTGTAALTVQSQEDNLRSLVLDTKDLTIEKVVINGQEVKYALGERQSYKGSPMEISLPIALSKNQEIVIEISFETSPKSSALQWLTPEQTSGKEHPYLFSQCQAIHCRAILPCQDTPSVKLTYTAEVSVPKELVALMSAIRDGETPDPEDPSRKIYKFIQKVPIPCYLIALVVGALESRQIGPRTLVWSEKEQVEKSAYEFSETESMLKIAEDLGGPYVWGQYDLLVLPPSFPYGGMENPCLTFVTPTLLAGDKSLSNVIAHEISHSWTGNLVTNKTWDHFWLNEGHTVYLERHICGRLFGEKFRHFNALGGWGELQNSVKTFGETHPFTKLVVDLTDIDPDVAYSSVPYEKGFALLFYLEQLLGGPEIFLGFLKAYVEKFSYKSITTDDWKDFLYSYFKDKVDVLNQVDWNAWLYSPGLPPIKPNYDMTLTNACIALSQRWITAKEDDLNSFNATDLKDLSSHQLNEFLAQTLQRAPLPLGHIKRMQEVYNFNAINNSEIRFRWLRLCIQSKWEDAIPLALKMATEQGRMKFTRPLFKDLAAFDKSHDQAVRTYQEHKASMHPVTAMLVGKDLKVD

Mus musculus [3] = assay: Anti-inflammatory activity in LPS-induced C57BL/6 mouse model of acute lung injury assessed as reduction in protein concentration in BALF at 25 mg/kg, ip pretreated for 1 hr followed LPS challenge measured after 24 hrs; format: functional, organism-based
Mus musculus [4] = assay: Anti-inflammatory activity in BLM-induced C57BL/6 mouse model of acute lung injury assessed as reduction in IL-1beta mRNA level in BALF compound administered intraperitoneally once daily for 7 days post BLM challenge measured on day 7 by qRT-PCR method; format: functional
[5] = target: T3, Polyunsaturated fatty acid 5-lipoxygenase (Homo sapiens) (UniProt P09917); assay: Inhibition of recombinant human N-terminal His-tagged 5-LOX expressed in Escherichia coli assessed as conversion of arachidonic acid to HpETEs measured for 300 secs by UV-visible spectrophotometric analysis
T3 sequence (whole entry): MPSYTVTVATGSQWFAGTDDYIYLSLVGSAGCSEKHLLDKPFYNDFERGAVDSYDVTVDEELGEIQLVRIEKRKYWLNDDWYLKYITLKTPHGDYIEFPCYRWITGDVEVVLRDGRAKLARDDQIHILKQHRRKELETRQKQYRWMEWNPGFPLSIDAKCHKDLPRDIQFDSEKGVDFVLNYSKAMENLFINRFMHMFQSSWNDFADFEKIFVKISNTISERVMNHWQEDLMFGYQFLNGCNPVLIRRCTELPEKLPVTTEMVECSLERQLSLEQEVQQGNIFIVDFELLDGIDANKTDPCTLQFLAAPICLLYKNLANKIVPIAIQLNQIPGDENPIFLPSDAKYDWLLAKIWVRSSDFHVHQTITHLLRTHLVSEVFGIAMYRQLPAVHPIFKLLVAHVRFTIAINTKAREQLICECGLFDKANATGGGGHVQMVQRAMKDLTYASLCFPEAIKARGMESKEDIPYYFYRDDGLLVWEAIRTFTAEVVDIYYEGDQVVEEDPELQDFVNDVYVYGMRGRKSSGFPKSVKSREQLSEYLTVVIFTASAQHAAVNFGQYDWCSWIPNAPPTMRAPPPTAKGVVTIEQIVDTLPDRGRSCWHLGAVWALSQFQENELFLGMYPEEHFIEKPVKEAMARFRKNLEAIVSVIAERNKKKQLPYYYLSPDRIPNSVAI

Mus musculus [6] = assay: Anti-inflammatory activity in LPS-induced C57BL/6 mouse model of acute lung injury assessed as reduction in pulmonary edema by measuring lung wet/dry ratio at 25 mg/kg, ip pretreated for 1 hr followed LPS challenge after 24 hrs […]; format: functional, organism-based
[7] = target: T4, Leukotriene A-4 hydrolase (Homo sapiens) (UniProt P09960)
T4 sequence (whole entry): T2 sequence (P09960 whole entry)
Description: Binding affinity to recombinant human LTA4H hydrolase assessed as change in melting temperature at 50 uM by SYPRO orange dye-based thermofluor assay

[8] = target: T4, Leukotriene A-4 hydrolase (Homo sapiens); conditions: at 10 µM
Description: Inhibition of recombinant human LTA4H Epoxide Hydrolase expressed in Escherichia coli BL21 (DE3) pLysS at 10 uM preincubated for 10 mins followed by addition of LTA4 as substrate measured after 15 mins by reverse-phase HPLC analysis

SMILES: CN(C)c1ccc(C(=O)NCCCCCCC(=O)NO)cc1
- INH [1]: > 50 µM
- IC50 [2]: 0.68 µM
- Activity (Mus musculus [3]): Active
- Activity (Mus musculus [4]): Dose-dependent effect
- INH [5]: > 50 µM
- Activity (Mus musculus [6]): Active
- ΔTm [7]: 2.35 °C
- inhibition [8]: > 50%

SMILES: O=C(CCCCCCC(=O)Nc1ccccc1)NO [VORINOSTAT]
- INH [1]: > 50 µM
- IC50 [2]: 7.65 µM
- Activity (Mus musculus [3]): Active
- Activity (Mus musculus [4]): Dose-dependent effect
- INH [5]: > 50 µM
- Activity (Mus musculus [6]): Active
- ΔTm [7]: 1.47 °C
- inhibition [8]: > 50%
